Test results: article PMC6398866 (PLoS ONE, 2019)

What was measured:
[1] = tested on: Ang II-induced hypertensive mice; test: Systolic blood pressure (tail-cuff) in Ang II-induced hypertensive mice; assay type: in vivo; settings: Ang II-infused mice, 3 mg·kg^-1·day^-1 i.p. day 8 to 14, vs Ang II group
Text: All animal experiments were approved by the Animal Experiment Committee of the Chonnam National University Medical School (CNU IACUC-H-2017-70) and carried out in accordance with the Guide for the Care and Use of Laboratory Animals (US National Institutes of Health Publication, 8th edition, 2011). CD-1 male mice (8-week-old) were purchased from OrientBio Company (Gyeonggi, South Korea). Alzet mini-osmotic pumps (model 1002) were purchased from Durect Corporation (Cupertino, CA, USA).

ANP mRNA = test: qRT-PCR of heart tissue, Ang II mice; assay type: in vivo; settings: Ang II-infused mice, 3 mg·kg^-1·day^-1 i.p. day 8 to 14, vs Ang II group
BNP mRNA = test: qRT-PCR of heart tissue, Ang II mice; assay type: in vivo; settings: Ang II-infused mice, 3 mg·kg^-1·day^-1 i.p. day 8 to 14, vs Ang II group
skeletal α-actin mRNA = test: qRT-PCR of heart tissue, Ang II mice; assay type: in vivo; settings: Ang II-infused mice, 3 mg·kg^-1·day^-1 i.p. day 8 to 14, vs Ang II group
[2] = tested on: Ang II-induced hypertensive mice; test: Aortic wall thickness (H&E staining) in Ang II mice; assay type: in vivo; settings: Ang II-infused mice, 3 mg·kg^-1·day^-1 i.p. day 8 to 14, H&E, vs Ang II group
cyclin D1 mRNA = test: qRT-PCR of aortic tissue, Ang II mice; assay type: in vivo; settings: Ang II-infused mice, 3 mg·kg^-1·day^-1 i.p. day 8 to 14, vs Ang II group
cyclin E1 mRNA = test: qRT-PCR of aortic tissue, Ang II mice; assay type: in vivo; settings: Ang II-infused mice, 3 mg·kg^-1·day^-1 i.p. day 8 to 14, vs Ang II group
E2F3 mRNA = test: qRT-PCR of aortic tissue, Ang II mice; assay type: in vivo; settings: Ang II-infused mice, 3 mg·kg^-1·day^-1 i.p. day 8 to 14, vs Ang II group
GATA6 mRNA = test: qRT-PCR of aortic tissue, Ang II mice; assay type: in vivo; settings: Ang II-infused mice, 3 mg·kg^-1·day^-1 i.p. day 8 to 14, vs Ang II group
arginase 1 mRNA = test: qRT-PCR of aortic tissue, Ang II mice; assay type: in vivo; settings: Ang II-infused mice, 3 mg·kg^-1·day^-1 i.p. day 8 to 14, vs Ang II group
arginase 2 mRNA = test: qRT-PCR of aortic tissue, Ang II mice; assay type: in vivo; settings: Ang II-infused mice, 3 mg·kg^-1·day^-1 i.p. day 8 to 14, vs Ang II group
GTPCH mRNA = test: qRT-PCR of aortic tissue, Ang II mice; assay type: in vivo; settings: Ang II-infused mice, 3 mg·kg^-1·day^-1 i.p. day 8 to 14, vs Ang II group
Nox1 mRNA = test: qRT-PCR of aortic tissue, Ang II mice; assay type: in vivo; settings: Ang II-infused mice, 3 mg·kg^-1·day^-1 i.p. day 8 to 14, vs Ang II group
Nox2 mRNA = test: qRT-PCR of aortic tissue, Ang II mice; assay type: in vivo; settings: Ang II-infused mice, 3 mg·kg^-1·day^-1 i.p. day 8 to 14, vs Ang II group
p47phox mRNA = test: qRT-PCR of aortic tissue, Ang II mice; assay type: in vivo; settings: Ang II-infused mice, 3 mg·kg^-1·day^-1 i.p. day 8 to 14, vs Ang II group
Cox-2 mRNA = test: qRT-PCR of aortic tissue, Ang II mice; assay type: in vivo; settings: Ang II-infused mice, 3 mg·kg^-1·day^-1 i.p. day 8 to 14, vs Ang II group
SOD3 mRNA = test: qRT-PCR of aortic tissue, Ang II mice; assay type: in vivo; settings: Ang II-infused mice, 3 mg·kg^-1·day^-1 i.p. day 8 to 14, vs Ang II group
iNOS mRNA = test: qRT-PCR of aortic tissue, Ang II mice; assay type: in vivo; settings: Ang II-infused mice, 3 mg·kg^-1·day^-1 i.p. day 8 to 14, vs Ang II group
MCP-1 mRNA = test: qRT-PCR of aortic tissue, Ang II mice; assay type: in vivo; settings: Ang II-infused mice, 3 mg·kg^-1·day^-1 i.p. day 8 to 14, vs Ang II group
VCAM-1 mRNA = test: qRT-PCR of aortic tissue, Ang II mice; assay type: in vivo; settings: Ang II-infused mice, 3 mg·kg^-1·day^-1 i.p. day 8 to 14, vs Ang II group
CD68+ macrophages = test: CD68 immunohistochemistry of aorta (macrophage infiltration), Ang II mice; assay type: in vivo; settings: Ang II-infused mice, 3 mg·kg^-1·day^-1 i.p. day 8 to 14, immunohistochemistry
Method: For immunohistochemistry, staining was performed in aortic tissues using a primary CD68 antibody. Before incubation with primary antibodies, aorta sections received antigen retrieval using a citrate buffer. Negative controls were performed without a primary antibody.

[3] = tested on: Ang II-induced hypertensive mice; settings: cited from earlier work
AT1 mRNA = test: qRT-PCR of aortic tissue, Ang II mice; assay type: in vivo; settings: Ang II-infused mice, 3 mg·kg^-1·day^-1 i.p. day 8 to 14, vs Ang II group
rat aortic rings = test: Isometric tension measurement, U46619-precontracted aortic rings
Method: A vasoconstriction-relaxation study was performed as described previously. Male Sprague-Dawley rats were purchased from Orient Bio (Gyeonggi-do, South Korea). Briefly, the thoracic aortas of the rats were excised and immersed in ice-cold, modified Krebs solution. The aortas were cleaned of all connective tissue, soaked in Krebs-bicarbonate solution, and cut into four ring segments (3.5 mm long). Each aortic ring was suspended in a water-jacketed organ bath (6 mL) maintained at 37°C and aerated with a mixture of 95% O2 and 5% CO2. Each ring was connected to an isometric force transducer (Danish Myo Technology, Skejbyparken, Aarhus N, Denmark). The rings were stretched to an optimal resting tension of 1.0 or 2.0 g, which was maintained throughout the experiment. Each ring was equilibrated in the organ bath solution for 90 min before the contractile responses were measured after the addition of 50 mM KCl.

[4] = tested on: vascular smooth muscle cells (VSMCs); test: NO production in VSMC medium (Griess assay); assay type: cell-based; settings: MS-275 3 and 10 μM, Ang II 1 μM, 24 h, Griess reagent
Method: VSMCs were seeded in 12 well plates.

TNF-α mRNA = test: qRT-PCR of aortic tissue, Ang II mice; assay type: in vivo; settings: Ang II-infused mice, 3 mg·kg^-1·day^-1 i.p. day 8 to 14, vs Ang II group
IL-1β mRNA = test: qRT-PCR of aortic tissue, Ang II mice; assay type: in vivo; settings: Ang II-infused mice, 3 mg·kg^-1·day^-1 i.p. day 8 to 14, vs Ang II group
ICAM-1 mRNA = test: qRT-PCR of aortic tissue, Ang II mice; assay type: in vivo; settings: Ang II-infused mice, 3 mg·kg^-1·day^-1 i.p. day 8 to 14, vs Ang II group
[5] = tested on: model of Cushing's syndrome; design: method as in PMID 28928236; settings: model of Cushing's syndrome ref 23; cited from earlier work
collagen type III mRNA = test: qRT-PCR, Ang II mice; settings: Ang II-infused mice, 3 mg·kg^-1·day^-1 i.p. day 8 to 14, S1 Fig
Method: (§1) Mice were anesthetized with a ketamine (120 mg/kg), and xylazine (6.2 mg/kg) mixture and 1-cm incisions were created on the backs of the mice. Ang II (1.3 mg·kg^-1·day^-1) was subcutaneously infused into the mice using an Alzet osmotic pump as described previously [26]. […] Ang II was dissolved in a 0.9% sodium chloride (NaCl) solution. The sham control mice received the vehicle (dimethyl sulfoxide [DMSO]). […] Mice were sacrificed at the end of the study by CO2 inhalation.
(§2) Total RNA from the aorta tissue and cells was isolated with TriZol reagent (Invitrogen Life Technologies, Waltham, MA, USA), and 1 μg RNA was used for the reverse transcription (RT) reaction using TOPscript RT DryMIX (Enzynomics, Daejeon, South Korea). The mRNA amounts were determined using the SYBR Green PCR kit (Enzynomics, Daejeon, South Korea). All the data were normalized to the glyceraldehyde 3-phosphate dehydrogenase (GAPDH) expression using the 2-^ΔΔct method.

ACE1 mRNA = test: qRT-PCR of aortic tissue, Ang II mice; settings: Ang II-infused mice, 3 mg·kg^-1·day^-1 i.p. day 8 to 14
Method: as §1, §2

DDAH1 mRNA = test: qRT-PCR of aortic tissue, Ang II mice; settings: Ang II-infused mice, 3 mg·kg^-1·day^-1 i.p. day 8 to 14, vs Ang II group
Method: as §1, §2

[6] = tested on: Ang II-induced hypertensive mice; test: NO levels in serum and aorta of Ang II-infused mice (Griess assay); settings: 3 mg·kg^-1·day^-1 i.p.
Method: Mice were anesthetized with a ketamine (120 mg/kg), and xylazine (6.2 mg/kg) mixture and 1-cm incisions were created on the backs of the mice. Ang II (1.3 mg·kg^-1·day^-1) was subcutaneously infused into the mice using an Alzet osmotic pump as described previously [26]. […] Ang II was dissolved in a 0.9% sodium chloride (NaCl) solution. The sham control mice received the vehicle (dimethyl sulfoxide [DMSO]). […] Mice were subjected to blood pressure measurements three times before determination of the systolic blood pressure on day 14 after Ang II infusion. The blood pressure was measured in awake mice using the tail-cuff method (BP-2000, Visitech Systems, Apex, NC, USA).
NO levels in the serum (100 μl) were measured without dilution. Aorta NO levels were determined using 50 μg of protein, which was deproteinized with 5% trichloroacetic acid (TCA).

[7] = tested on: Ang II-induced hypertensive mice; test: Aortic collagen deposition (Masson's trichrome staining) in Ang II mice; settings: Ang II-infused mice, 3 mg·kg^-1·day^-1 i.p. day 8 to 14, Masson's trichrome
Method: Mice were anesthetized with a ketamine (120 mg/kg), and xylazine (6.2 mg/kg) mixture and 1-cm incisions were created on the backs of the mice. Ang II (1.3 mg·kg^-1·day^-1) was subcutaneously infused into the mice using an Alzet osmotic pump as described previously [26]. […] Ang II was dissolved in a 0.9% sodium chloride (NaCl) solution. The sham control mice received the vehicle (dimethyl sulfoxide [DMSO]). […] Mice were subjected to blood pressure measurements three times before determination of the systolic blood pressure on day 14 after Ang II infusion. The blood pressure was measured in awake mice using the tail-cuff method (BP-2000, Visitech Systems, Apex, NC, USA). Mice were sacrificed at the end of the study by CO2 inhalation.
Aortic tissues were fixed in 4% paraformaldehyde at 25°C, embedded in paraffin, and cut into 3-μm thick sections. The tissue slides were deparaffinized three times with xylene and hydrated using serially diluted ethanol. After immersing in tap water for 2 min, the slides were stained with Gill’s hematoxylin V for 5 min and then washed with tap water for 5 min and 95% ethanol for 2 min. The slides were stained with Eosin Y for 1 min, dehydrated with ethanol and xylene, and mounted using Canada balsam. The aortic wall thickness was measured using the NIS Elements Software (Nikon, Japan). […]

[8] = tested on: spontaneously hypertensive rats (SHR); design: method as in PMID 22389387; settings: long-term treatment, SHR ref 22; cited from earlier work
[9] = tested on: high-fat diet-induced hypertension; design: method as in PMID 28720877; settings: by downregulating Ang II and AT1 ref 24; cited from earlier work
AT1 = settings: through AT1 ref 25; cited from earlier work

With `Nc1cc(F)ccc1NC(=O)/C=C/c1cnn(C/C=C/c2ccccc2)c1` [RGFP966] the systolic blood pressure [1] was “significantly reduced”, the “ANP mRNA level in heart” value (ANP mRNA) was “significantly reduced” and the “BNP mRNA level in heart” value (BNP mRNA) was “significantly reduced”. The “skeletal a-actin mRNA level in heart” value (skeletal α-actin mRNA) was “significantly reduced”, the aortic wall thickness [2] was “significantly decreased” and the “cyclin D1 mRNA level in aorta” value (cyclin D1 mRNA) was “not significantly decreased”. The “cyclin E1 mRNA level in aorta” value (cyclin E1 mRNA) was “not significantly decreased”, the “E2F3 mRNA level in aorta” value (E2F3 mRNA) was “significantly inhibited” and the “GATA6 mRNA level in aorta” value (GATA6 mRNA) was “significantly suppressed”. For the same compound, the “arginase 1 mRNA level in aorta” value (arginase 1 mRNA) was “not reduced”, the “arginase 2 mRNA level in aorta” value (arginase 2 mRNA) was “not reduced” and the “GTPCH mRNA level in aorta” value (GTPCH mRNA) was “significantly reduced”. For the same compound, the “Nox1 mRNA level in aorta” value (Nox1 mRNA) was “unchanged”, the “Nox2 mRNA level in aorta” value (Nox2 mRNA) was “unchanged” and the “p47phox mRNA level in aorta” value (p47phox mRNA) was “unchanged”. For the same compound, the “Cox-2 mRNA level in aorta” value (Cox-2 mRNA) was “not significantly decreased”, the “SOD3 mRNA expression in aorta” value (SOD3 mRNA) was “did not restore” and the “iNOS mRNA level in aorta” value (iNOS mRNA) was “not”. For the same compound, the “MCP-1 mRNA level in aorta” value (MCP-1 mRNA) was “not”, the “VCAM-1 expression in aorta” value (VCAM-1 mRNA) was “not” and the “number of CD68+ macrophages in aorta tissue” value (CD68+ macrophages) was “reduced”.
In the case of `CN1CCc2c(c3ccccc3n2Cc2ccc(C(=O)NO)cc2)C1` [tubastatin A], the hypertension ([3]; Ang II-infused mice ref 28) is listed as “did not reduce”.
For `Cn1c(/C=C/C(=O)NO)ccc1/C=C/C(=O)c1cccc(F)c1` [MC1568], the “high systolic blood pressure” value ([3]; Ang II-induced hypertensive mice ref 26) is listed as “reduces”.
In the case of `Nc1ccccc1NC(=O)c1ccc(CNC(=O)OCc2cccnc2)cc1` [MS-275], the systolic blood pressure [1] is reported as “significantly reduced”, the “AT1 mRNA level in aorta” value (AT1 mRNA) is reported as “decreased” and the “ANP mRNA level in heart” value (ANP mRNA) is reported as “significantly reduced”. The “BNP mRNA level in heart” value (BNP mRNA) was “significantly reduced”, the “skeletal a-actin mRNA level in heart” value (skeletal α-actin mRNA) was “significantly reduced” and the aortic wall thickness [2] was “significantly decreased”. The “cyclin D1 mRNA level in aorta” value (cyclin D1 mRNA) was “not significantly decreased”, the “cyclin E1 mRNA level in aorta” value (cyclin E1 mRNA) was “not significantly decreased” and the “E2F3 mRNA level in aorta” value (E2F3 mRNA) was “significantly inhibited”. For the same compound, the “GATA6 mRNA level in aorta” value (GATA6 mRNA) was “significantly suppressed”, the “vasorelaxation of U46619-precontracted aortic rings” value (rat aortic rings; endothelium-intact and -denuded rat aortas, U46619 30 nM, MS-275 cumulative 0.003–3 μM) was “induced vasorelaxation” and the “concentration at which maximum relaxation was observed” value (rat aortic rings; rat aortic rings precontracted with U46619 30 nM) was 3 µM. For the same compound, the “NO level in VSMC medium lowered by Ang II” value [4] was “significantly restored”, the “arginase 1 mRNA level in aorta” value (arginase 1 mRNA) was “not reduced” and the “arginase 2 mRNA level in aorta” value (arginase 2 mRNA) was “not reduced”. For the same compound, the “GTPCH mRNA level in aorta” value (GTPCH mRNA) was “significantly reduced”, the “Nox1 mRNA level in aorta” value (Nox1 mRNA) was “unchanged” and the “Nox2 mRNA level in aorta” value (Nox2 mRNA) was “unchanged”. The “p47phox mRNA level in aorta” value (p47phox mRNA) was “unchanged”, the “Cox-2 mRNA level in aorta” value (Cox-2 mRNA) was “not significantly decreased” and the “SOD3 mRNA expression in aorta” value (SOD3 mRNA) was “did not restore”. For the same compound, the “iNOS mRNA level in aorta” value (iNOS mRNA) was “significantly attenuated”, the “TNF-α mRNA level in aorta” value (TNF-α mRNA) was “significantly attenuated” and the “IL-1β mRNA level in aorta” value (IL-1β mRNA) was “significantly attenuated”. The “MCP-1 mRNA level in aorta” value (MCP-1 mRNA) was “significantly attenuated”, the “VCAM-1 expression in aorta” value (VCAM-1 mRNA) was “significantly inhibited” and the “ICAM-1 expression in aorta” value (ICAM-1 mRNA) was “significantly inhibited”. For the same compound, the “number of CD68+ macrophages in aorta tissue” value (CD68+ macrophages) was “reduced”, the hypertension and hyperglycemia [5] was “attenuates” and the “collagen type III mRNA level” value (collagen type III mRNA) was “reduced”. The “ACE1 mRNA level in aorta” value (ACE1 mRNA) was “significantly reduced”, the “DDAH1 mRNA level in aorta” value (DDAH1 mRNA) was “suppressed” and the “NO level in aorta” value [6] was “not induced”. The “NO level in serum” value [6] was “not induced” and the “collagen deposition in the adventitia of aortic tissues” value [7] was “attenuated”.
For `CCCC(CCC)C(=O)O` [VPA, valproic acid], the “cardiac hypertrophy, inflammation, and hypertensive responses” value [8] is listed as “reduces” and the high-fat diet-induced hypertension [9] is listed as “prevents”.
With `COC(=O)[C@@H](N)CCCNC(N)=N[N+](=O)[O-]` [L-NAME, N^G-nitro-L-arginine methyl ester] the “effect of pretreatment on MS-275-induced vascular relaxation” value (rat aortic rings; endothelium-intact rat aortic rings, L-NAME 10 or 100 μM for 30 min) was “reduced”.
For `CC(/C=C/C(=O)NO)=C\[C@@H](C)C(=O)c1ccc(N(C)C)cc1` [TSA, trichostatin A], the hypertension and vasoconstriction (AT1) is listed as “inhibits”.
